For series [1], the system named is Sphaerotheca fuliginea. Kind of series: Example L: in vivo test on Sphaerotheca fuliginea (powdery mildew on cucumber/protective). Conditions: Podosphaera fuliginea, 168 h, cucumber, protective, assessment 7 days after inoculation, read-out: % Wirkungsgrad. The essentials:
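Young cucumber plants sprayed at stated dosage with compound in DMF/alkylaryl polyglycol ether emulsifier diluted in water; inoculated with S. fuliginea spores one day later. Kept in greenhouse at 70% relative humidity, 23° C; protective activity assessed 7 days after inoculation.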

Series [2] in a line: physchem.
Series [3] deals with Plasmopara viticola. Briefly: Example N: in vivo test on Plasmopara viticola (downy mildew, vine/protective). Conditions: 144 h, vine, protective, assessment 6 days after inoculation, read-out: % Wirkungsgrad. The method, then: Emulsifier: 1 part by weight alkylaryl polyglycol ethers For the preparation of a suitable active substance preparation, 1 part by weight of active substance is mixed with the stated quantities of solvent and emulsifier and the concentrate is diluted to the desired concentration with water. For the testing for protective activity, young plants are sprayed with the active substance preparation at the stated application dosage. […] The plants are then moistened and placed in an incubation cabin for 1 day. 6 days after the inoculation, the assessment takes place.

In series [4] the test system is Fusarium graminearum. Kind of series: microbe, parasite or virus in culture. Format: cell-based.
Series [5] has as its system Alternaria solani. Briefly: Example M: in vivo test on Alternaria solani (leaf blotch disease/tomato/protective). Conditions: 168 h, tomato, protective, 500 ppm active substance, assessed 7 days after inoculation, read-out: % Wirkungsgrad (activity level). The essentials:
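Protective test: young tomato plants sprayed with active substance (in DMF with alkylaryl polyglycol ether emulsifier, diluted in water) at the stated dosage, then inoculated with Alternaria solani. Disease assessed 7 days after inoculation.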

In series [6] the test system is Venturia inaequalis. Briefly: Example O: in vivo test on Venturia inaequalis (apple scab/protective). Conditions: 240 h, protective, assessment 10 days after inoculation, read-out: % Wirkungsgrad. The method, then: (§1) Emulsifier: 1 part by weight alkylaryl polyglycol ethers For the preparation of a suitable active substance preparation, 1 part by weight of active substance is mixed with the stated quantities of solvent and emulsifier and the concentrate is diluted to the desired concentration with water. For the testing for protective activity, young plants are sprayed with the active substance preparation at the stated application dosage. […] 10 days after the inoculation, the assessment takes place.

The subject of series [7] is Botrytis cinerea. Briefly: Example P: in vivo test on Botrytis cinerea (gray mould on bean/protective). Conditions: 48 h, bean, protective, 250 ppm active substance, assessed 2 days after inoculation, read-out: % Wirkungsgrad (activity level). How it is done:
as §1, with “dosage. After drying of the spray coating, 2 small pieces of agar with Botrytis cinerea growing on them are laid on every leaf.” for “dosage.”, “2” for “10”, “size of the infection blotches on the leaves is assessed.” for “assessment takes place.”

Series [8] concerns Mycosphaerella graminicola. Briefly: Example G: in vivo test on Mycosphaerella graminicola (wheat leaf blotch disease). Conditions: Zymoseptoria tritici, wheat plants sprayed 24 hours before inoculation, scored after 21 to 28 days, read-out: % Wirkungsgrad. The method, then: In Vivo Test on Mycosphaerella Graminicola (Wheat Leaf Blotch Disease) An aqueous suspension of the active substance was prepared by homogenization of a mixture of acetone/Tween/dimethyl sulphoxide and subsequent dilution with water to the desired concentration. Wheat plants (variety: Scipion) are sown in cultivation dishes on a peat-pozzolanic earth substrate (50/50) at 12° C. and sprayed at the first-leaf stage (10 cm size) with the aqueous suspension described above. As a control, plants are sprayed with an aqueous solution with no active substance. After 24 hours the plants are inoculated by spraying with an aqueous suspension of Mycosphaerella graminicola spores (500,000 spores per ml). The spores are derived from a 7 day-old culture. […] After 21 to 28 days they are scored in comparison with the control plants.

The subject of series [9] is Sphaerotheca fuliginea. Kind of series: Example D: in vivo test on Sphaerotheca fuliginea (powdery mildew on cucumber). Conditions: Podosphaera fuliginea, 288 h, cucumber plants sprayed 24 hours before inoculation, scored after 12 days, read-out: % Wirkungsgrad. The method, then: In Vivo Test on Sphaerotheca Fuliginea (Powdery Mildew on Cucumber) An aqueous suspension of the active substance was prepared by homogenization of a mixture of acetone/Tween/dimethyl sulphoxide and subsequent dilution with water to the desired concentration. Cucumber plants (variety: Vert petit de Paris) are sown in cultivation dishes on a peat-pozzolanic earth substrate (50/50) at 20/23° C. and at the cotyledon stage Z10 sprayed with the aqueous suspension described above. As a control, plants are sprayed with an aqueous solution with no active substance. After 24 hours the plants are inoculated by spraying with an aqueous suspension of Sphaerotheca fuliginea spores (100,000 spores per ml). The spores are derived from a contaminated plant. The inoculated cucumber plants are incubated at ca. 20/25° C. at a relative atmospheric humidity of 60/70%. After 12 days they are scored in comparison with the control plants.

Series [10] relates to Fusarium proliferatum. Kind of series: Example I: production of fumonisin FB1 by Fusarium proliferatum (microtitre plates). Conditions: 120 h. Format: cell-based.
Setting [11] is: 72 h, read-out: % Inhibition des Pilzwachstums bei 50 μM.
The mark [12] stands for this setting: 168 h, read-out: % Inhibition der DON/AcDON produktion bei 50 μM.
Setting [13] is: LogPA (logP of the stated pure compound or, in a mixture, of the main isomer, 1-substituted 3-aryl-1H-pyrazole).
The mark [14] stands for this setting: Fusarium proliferatum growth, OD 620, 5 days, read-out: % Inhibition des Pilzwachstums bei 50 μM.
The mark [15] stands for this setting: Fusarium proliferatum, 5 days at 20° C., HPLC-MS/MS, read-out: % Inhibition der FB1 produktion bei 50 μM.

The results in this text go back to patent US20110183978A1, “Phenylpyri(mi)dinylazoles” (Bayer CropScience AG, priority 2009, published 2011).

Read-outs that look alike come from different tables or passages of the source.

For orientation: chromatographic logP means a lipophilicity value derived from retention on a column. Turning to `CC(C)n1cc(-c2ccnc(NC(=O)c3ccsc3)c2)c(-c2ccc(F)cc2)n1` [Compound 207], the results for the pest or weed control at 500 ppm in [1] and in series [5] were 100% and 90%, respectively. The same compound registered a chromatographic logP in series [2] (LogPA) of 2.96. For the same compound, the pest or weed control at 100 ppm in series [3] was 71%; in series [6], 86%. Also, the results for the inhibition at 50 µM in series [4] (setting [11]) and in series [4] (setting [12]) were 75% and 100%, respectively. For the same compound, the pest or weed control at 250 ppm in [7] is 100%.

Take `C#CCNc1nccc(-c2cn(CC(C)C)nc2-c2ccc(F)cc2)n1` [Compound 183]: the pest or weed control at 500 ppm in [1] is 94%; in series [5] it was 100%. The same compound returned a chromatographic logP in series [2] (LogPA) of 2.76. In addition, the pest or weed control at 100 ppm in [3] turned out to be 86%; in [6] it was 73%. Moreover, the inhibition at 50 µM in series [4] (setting [11]) turned out to be 65%; in series [4] (setting [12]) it was 99%. The pest or weed control at 250 ppm in [7] came to 93%.

Take `Fc1cccc(F)c1-c1nn(CC2CCCO2)cc1-c1ccncc1` (centres unmarked) [Compound 26]: in series [2] (setting [13]), the chromatographic logP was 1.16. Moreover, the pest or weed control at 500 ppm in series [8] was 88%; in series [9] it was 80%.

As for `CC(C)n1ncc(-c2ccnc(NC(=O)C(C)(C)C)c2)c1-c1ccc(F)cc1` [Compound 72], the chromatographic logP in series [2] (setting [13]) came to 2.99. Moreover, the pest or weed control at 500 ppm in series [8] was 83%; in [5], 95%.

For `Fc1cccc(F)c1-c1nn(CC(F)(F)F)cc1-c1ccncc1` [Compound 12], the chromatographic logP in series [2] (setting [13]) turned out to be 1.39. Also, the results for the pest or weed control at 500 ppm in [8] and in series [9] were 77% and 95%, respectively.

As to `O=C(Nc1cc(-c2cn(CC(F)F)nc2-c2ccc(F)cc2)ccn1)c1cccs1` [Compound 236], the figures for the pest or weed control at 500 ppm in series [1] and in series [5] were 86% and 94%, respectively. The compound also had a chromatographic logP in series [2] (LogPA) of 2.82. Moreover, the pest or weed control at 100 ppm in series [3] worked out at 76%; in [6], 94%. In addition, the pest or weed control at 250 ppm in [7] stood at 100%.

In the case of `CCOC(=O)CCn1cc(-c2ccncc2)c(-c2ccc(F)cc2)n1` [Compound 132], the chromatographic logP in series [2] (setting [13]) was 1.29. Also, the pest or weed control at 500 ppm came to 86% in series [8] and 82% in series [9].

With `O=C(Nc1cc(-c2cn(CC(F)F)nc2-c2ccc(F)cc2)ccn1)c1ccccc1` [Compound 237], the values for the pest or weed control at 500 ppm in series [1] and in [5] were 88% and 100%, respectively. Moreover, the chromatographic logP in series [2] (LogPA) came to 2.9. The pest or weed control at 100 ppm came out at 84% in series [3] and 95% in series [6]. The pest or weed control at 250 ppm in series [7] was 100%.

Turning to `Fc1cccc(F)c1-c1c(-c2ccncc2)cnn1CC1CCCO1` (centres unmarked) [Compound 27], in series [2] (setting [13]), the chromatographic logP worked out at 1.21. Besides, the pest or weed control at 500 ppm stood at 97% in series [8] and 73% in [9].

Take `CC(C)CC(=O)Nc1cc(-c2cn(C(C)C)nc2-c2ccc(F)cc2)ccn1` [Compound 160]: the pest or weed control at 500 ppm turned out to be 100% in series [1] and 95% in series [5]. For the same compound, in series [2] (setting [13]), the chromatographic logP turned out to be 2.82. Also, the values for the pest or weed control at 100 ppm in series [3] and in series [6] were 79% and 94%, respectively. In addition, the inhibition at 50 µM in series [4] (setting [11]) and in series [4] (setting [12]) was 100% each time. Also, in series [7], the pest or weed control at 250 ppm came out at 100%.

Regarding `CC(=O)Nc1cc(-c2cn(C(C)C)nc2-c2ccc(F)cc2)ccn1` [Compound 161], the pest or weed control at 500 ppm was 100% in series [1] and 95% in series [5]. Besides, the chromatographic logP in [2] (setting [13]) was 1.85. The pest or weed control at 100 ppm in [3] and in series [6] was 95% each time. The inhibition at 50 µM in series [4] (setting [11]) worked out at 104%; in [4] (setting [12]), 100%. The pest or weed control at 250 ppm in series [7] worked out at 100%.

In the case of `CCC(=O)Nc1cc(-c2cn(CCCl)nc2-c2ccc(F)cc2)ccn1` [Compound 219], in series [1], the pest or weed control at 500 ppm was 100%. For the same compound, the chromatographic logP in series [2] (LogPA) was 2.01. Further, the inhibition at 50 µM amounted to 97% in series [10] (setting [14]), 100% in series [10] (setting [15]), 97% in series [4] (setting [11]) and 100% in series [4] (setting [12]). Moreover, the pest or weed control at 100 ppm in series [3] came out at 95%; in series [6], 96%. Besides, the pest or weed control at 250 ppm in series [7] came out at 100%.

Regarding `CCC(C)C(=O)Nc1cc(-c2cn(CC(F)F)nc2-c2ccc(F)cc2)ccn1` (centres unmarked) [Compound 239], the values for the pest or weed control at 500 ppm in [1] and in series [5] were 95% and 100%, respectively. This compound also displayed a chromatographic logP in [2] (LogPA) of 2.62. Further, the figures for the pest or weed control at 100 ppm in [3] and in series [6] were 88% and 98%, respectively.

On to `Fc1cccc(F)c1-c1nn(C2CCCC2)cc1-c1ccncc1` [Compound 16], for which, in series [2] (setting [13]), the chromatographic logP came to 1.79. The pest or weed control at 500 ppm in [8] was found to be 97%.

Consider `C#CCn1ccc2c(-c3cn(C(C)C)nc3-c3ccc(F)cc3)ccnc21` [Compound 47], for which the chromatographic logP in series [2] (setting [13]) turned out to be 3.63. Besides, in [8], the pest or weed control at 500 ppm was 77%. For the same compound, the results for the inhibition at 50 µM in series [10] (setting [14]) and in series [10] (setting [15]) were 0% and 98%, respectively.

With `CNC(=O)c1cc(-c2cn(C(C)C)nc2-c2ccc(F)cc2)ccn1` [Compound 53], the chromatographic logP in series [2] (setting [13]) turned out to be 2.74. In addition, the pest or weed control at 500 ppm was 91% in [8] and 98% in series [9]. The inhibition at 50 µM in series [10] (setting [14]) turned out to be 0%; in series [10] (setting [15]), 96%.

Take `O=C(Nc1cc(-c2cn(CC3CC3(Cl)Cl)nc2-c2ccc(F)cc2)ccn1)C1CC1` (centres unmarked) [Compound 260]: the pest or weed control at 500 ppm came to 95% in series [1] and 90% in series [5]. In [2] (LogPA), this compound displayed a chromatographic logP of 2.67. Moreover, the pest or weed control at 100 ppm in series [3] was determined as 70%; in series [6], 94%. Besides, the inhibition at 50 µM in [4] (setting [11]) was found to be 5%; in series [4] (setting [12]), 99%. Moreover, the pest or weed control at 250 ppm in series [7] is 100%.
